Measurements taken from article PMC6369734, “Spy vs. spy: selecting the best reporter for ^19F NMR competition experiments” (Chemical Communications (Cambridge, England), 2019).
Like-named read-outs stand apart in the source and are kept apart here.

Experiments:
[1] = molecular target: T1, VHL (VBC complex: pVHL54-213, eloB1-104, eloC17-112) (Homo sapiens, UniProt P40337); assay: Surface plasmon resonance (SPR) steady-state binding to immobilised biotinylated AviVBC
T1 construct: equimolar complex of pVHL54-213, eloB1-104 and; made in house; host or cells: E. coli
Method: The KD of each compound to VHL was determined by surface plasmon resonance (SPR) experiments.
3. Protein expression, purification and biotinylation
The VHL E3 ligase is a multi-protein complex composed of five proteins: VHL protein (pVHL), elongin B (eloB), elongin C (eloC), Cullin-2 (Cul2) and Ring-box protein 1 (Rbx1).[3] Since the compounds developed in this work bind solely to the VHL protein, the VBC complex (equimolar complex of pVHL54-213, eloB1-104 and eloC17-112) was used in all experiments, as it can be readily expressed in E. coli with high yields,[4] while the full E3 ligase would require baculovirus-insect cells expression system.[5] The expression and purification of VBC was performed as described previously by our group[2] and employed directly in all NMR experiments.
For the surface plasmon resonance (SPR) experiments, a VBC complex containing an AviTagTM in the N-terminus of eloB (AviVBC) was purified using the same procedure described for VBC. The modified eloB/eloC expression plasmid was previously developed in-house by Dr. Michael Roy and kindly shared. The AviVBC complex was site-specifically biotinylated in the AviTag using the GST-BirA method previously described by […]
4. Surface plasmon resonance experiments
The SPR experiments were performed with a Biacore T200 instrument (GE Healthcare). All measurements were performed at 20 °C with buffer containing 10 mM HEPES, pH 7.5, 150 mM NaCl, 1 mM TCEP, 0.005% (v/v) Tween® 20 and 2% (v/v) dimethyl sulfoxide (DMSO). Biotinylated AviVBC (~0.5 μM) was immobilised at 22 °C onto a Series S sensor chip SA (GE Heathcare) to levels of approximately 3500-4000 response units […]
Solutions of each spy molecule were prepared in buffer at concentrations based on previous structure-activity relationship studies of VHL ligands (K D expected in the nanomolar range for structures like spy molecules 16 and 22, or in the milimolar range for spy molecules similar to 1 and 9). From this first screen, the binding affinities were roughly estimated using the Biacore T200 evaluation software (GE Healthcare), then measurements were repeated using concentrations above and below the KD obtained in the first round to generate better curves for fitting the data accurately. Contact and dissociation times varied across the different compounds tested, but in […]
dissociated from the surface in less than sixty seconds.
Data analysis was performed using the steady state responses of the double-referenced sensorgrams (raw data subtracted from blank and reference surface injections) obtained for each concentration tested. These responses were plotted against the respective concentrations and the data fitted to a 1: 1 binding model u sing the Biacore T200 evaluation software and the following equation: […]
Where Req is the steady-state response at a given concentration C. Deviations in Req were corrected by adding an ‘offset’ term to the equation. KD is the dissociation constant to be determined and RMAX is the maximum response expected for a given compound according to the equation below:
Where n is the stoichiometry of the interaction ( in this case, n = 1) and RProtein is the immobilization level of protein. MWCompound and MWProtein are the molecular weights of compound and protein, respectively. Sensorgrams and fitting parameters for all spy molecules can be found in section 7.

[2] = molecular target: T2, VHL (VBC complex) (Homo sapiens, UniProt P40337); assay: 19F CPMG NMR transverse relaxation rate (R2) and R2 contrast (C2) of spy molecule with and without protein; type: binding
T2 construct: equimolar complex of pVHL54-213, eloB1-104 and; made in house; host or cells: E. coli
Source text: Due to the large CSA of fluorine and the significant differences in the fluorine isotropic chemical shift (δF) between the free and bound states, the transverse relaxation rate (R2) is a well-established sensitive parameter to detect ligand binding.[4] Therefore, fluorine NMR experiments including a Carr–Purcell–Meiboom–Gill (CPMG) spin-echo filter[10] before acquisition were employed to monitor ligand binding to VHL by measuring peak intensity, as changes in other NMR parameters, such as chemical shift and peak width, were not as significant. The R2 values of the CF3 peak of each compound in the absence and in the presence of protein were determined by performing multiple ^19F CPMG experiments varying the CPMG filter (Fig. 2a). To quantify the shift in R2 upon binding, the R2 contrast (C2)[11] was determined. Ideally, a good spy molecule should have a large increase in R2 (fast relaxation) when protein is present, resulting in a large assay window for the competition experiments (Fig. 2b).
5. Measurement of the transverse relaxation rates by 19F CPMG NMR
All the NMR experiments were performed in a 500 MHz Bruker AVANCE N MR spectrometer equipped with a CPQCI -F cryoprobe. To measure the transverse relaxation rates (R 2), a solution of each spy molecule at 100 μM was prepared in 50 mM potassium phosphate monobasic (KH2PO4), pH 7.5, 100 mM NaCl, 1 mM TCEP, 2% (v/v) DMSO, 20% D2O and 10 µM trifluoroacetic acid (TFA). For each solution, 19F CPMG experiments […]
Due to the fast relaxation of molecules 21 and 22, these experiments were repeated with shorter CPMG filters (50, 100, 150, 200, 300, 400, 700 and 1000 ms). The fluorine peaks were integrated and plotted against the resp ective CPMG filters. The R 2 relaxation rates were obtained from fitting the data as a n exponential decay (GraphPad Prism 6) according to the equation below: [7]
Where I(t) is the 19F signal intensity or integral, t is the total CPMG filter in seconds, I(0) is the signal intensity when t = 0. To obtain the R2 upon addition of prot ein, all the experiments above were repeated in presence of VBC at 1 µM. Experiments were performed as triplicates and the R 2 contrasts (C2) were obtained according to the equation below: [8]
Where R2Free is the R2 obtained for the spy molecule free in solution and R2Observed is the R2 obtained with the spy molecule in presence of VBC. The raw data, fitting, R2 and C2 values for each spy molecule can be found in section 8.1. For the R2 measurements using molecule 19 at varied concentrations of spy molecule and protein, see section 8.2 . For the R2 measurements using spy molecules 6 and 11 (used to generate figures S 2, S3 and S4) see

[3] = SPR steady-state fit, supplement section 7, read-out: KD (Biacore T200 fit)
[4] = SPR, 20 °C, steady-state 1:1 fit, footnote b values fitted because RMAX was not reached experimentally, read-out: K D, SPR
[5] = Spy molecule 100 μM + VBC 1 μM, supplement 8.1
[6] = Spy molecule 100 μM, no protein
[7] = Spy molecule 19 at 10 µM, VBC 0.125 μM
[8] = Spy molecule 19 at 10 µM, VBC 0.250 μM
[9] = Spy molecule 19 at 10 µM, VBC 0.500 μM
[10] = Spy molecule 19 at 10 µM, VBC 1.000 μM
[11] = Spy molecule 19 at 25 µM, VBC 0.125 μM
[12] = Spy molecule 19 at 25 µM, VBC 0.250 μM
[13] = Spy molecule 19 at 25 µM, VBC 0.500 μM
[14] = Spy molecule 19 at 25 µM, VBC 1.000 μM
[15] = Spy molecule 19 at 50 µM, VBC 0.125 μM
[16] = Spy molecule 19 at 50 µM, VBC 0.250 μM
[17] = Spy molecule 19 at 50 µM, VBC 0.500 μM
[18] = Spy molecule 19 at 50 µM, VBC 1.000 μM
[19] = spy concentration not given, VBC 0.125 μM
[20] = spy concentration not given, VBC 0.250 μM
[21] = spy concentration not given, VBC 0.500 μM
[22] = spy concentration not given, VBC 1.000 μM

T1 sequence (P40337 54-213): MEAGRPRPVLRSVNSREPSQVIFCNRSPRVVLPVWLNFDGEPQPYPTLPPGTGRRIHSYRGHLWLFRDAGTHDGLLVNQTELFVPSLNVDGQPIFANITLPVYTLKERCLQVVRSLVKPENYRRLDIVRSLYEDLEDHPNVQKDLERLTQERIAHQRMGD
T1 sequence (Q15370 1-104 partner limits assumed): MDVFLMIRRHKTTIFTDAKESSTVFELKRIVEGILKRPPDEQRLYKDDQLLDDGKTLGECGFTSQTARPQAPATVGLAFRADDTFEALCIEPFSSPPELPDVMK
T1 sequence (Q15369 17-112 partner limits assumed): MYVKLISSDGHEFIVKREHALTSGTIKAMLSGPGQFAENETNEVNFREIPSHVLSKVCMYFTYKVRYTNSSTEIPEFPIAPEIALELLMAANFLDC
T2 sequence (P40337 54-213): as the sequence (P40337 54-213) above
T2 sequence (Q15370 1-104 partner limits assumed): as the sequence (Q15370 1-104 partner limits assumed) above
T2 sequence (Q15369 17-112 partner limits assumed): as the sequence (Q15369 17-112 partner limits assumed) above

Compound: CC(C)(C)CC(=O)N1C[C@H](O)C[C@H]1C(=O)NCc1ccc(Br)c(C(F)(F)F)c1 [Compound 3]
- Kd [1, 3]: 407 µM
- Kd [1, 4]: 407 ± 5 µM
- R2 ([2]; Spy molecule 100 μM + VBC 1 μM): 1.847 ± 0.033 s⁻¹
- R2 contrast – C2 [2, 5]: 28.2 ± 2.3%
- R2 [2, 6]: 1.326 ± 0.025 s⁻¹

Compound: CC(=O)N1C[C@H](O)C[C@H]1C(=O)NCc1ccc(Br)cc1C(F)(F)F [Compound 10]
- Kd [1, 4]: 1350 ± 94 µM
- R2 ([2]; Spy molecule 100 μM + VBC 1 μM): 2.596 ± 0.046 s⁻¹
- R2 contrast – C2 [2, 5]: 51.9 ± 2.1%
- R2 [2, 6]: 1.249 ± 0.018 s⁻¹

Compound: CC(=O)NC(C(=O)N1CC(O)CC1C(=O)NCc1ccc(Br)cc1C(F)(F)F)C(C)(C)C (centres unmarked) [Compound 12]
- binding kinetics / dissociation rates by SPR ([1]; SPR): too high to be determined accurately
- Kd [1, 3]: 1.14 µM
- Kd [1, 4]: 1.14 ± 0.12 µM
- R2 ([2]; Spy molecule 100 μM + VBC 1 μM): 1.637 ± 0.028 s⁻¹
- R2 contrast – C2 [2, 5]: 7.6 ± 2.4%
- R2 [2, 6]: 1.512 ± 0.029 s⁻¹

Compound: O=C(NCc1ccc(Br)cc1)C1CC(O)CN1C(=O)CC(F)(F)F (centres unmarked) [Compound 19]
- Kd [1, 3]: 145 µM
- Kd [1, 4]: 145 ± 29 µM
- R2 ([2]; Spy molecule 100 μM + VBC 1 μM): 5.096 ± 0.186 s⁻¹
- R2 contrast – C2 [2, 5]: 70.1 ± 4.5%
- R2 [2, 6]: 1.526 ± 0.041 s⁻¹
- R2 ([2]; Spy molecule 19 at 10 µM, VBC 0.000 μM): 1.464 ± 0.096 s⁻¹
- R2 [2, 7]: 2.346 ± 0.193 s⁻¹
- R2 contrast – C2 [2, 7]: 35.0 ± 8.9%
- R2 [2, 8]: 2.807 ± 0.131 s⁻¹
- R2 contrast – C2 [2, 8]: 45.6 ± 5.3%
- R2 [2, 9]: 4.288 ± 0.304 s⁻¹
- R2 contrast – C2 [2, 9]: 64.4 ± 8.5%
- R2 [2, 10]: 7.974 ± 0.727 s⁻¹
- R2 contrast – C2 [2, 10]: 80.9 ± 11.7%
- R2 ([2]; Spy molecule 19 at 25 µM, VBC 0.000 μM): 1.582 ± 0.049 s⁻¹
- R2 [2, 11]: 2.107 ± 0.095 s⁻¹
- R2 contrast – C2 [2, 11]: 27.6 ± 5.1%
- R2 [2, 12]: 2.811 ± 0.156 s⁻¹
- R2 contrast – C2 [2, 12]: 45.7 ± 6.3%
- R2 [2, 13]: 4.008 ± 0.200 s⁻¹
- R2 contrast – C2 [2, 13]: 61.9 ± 5.9%
- R2 [2, 14]: 6.934 ± 0.348 s⁻¹
- R2 contrast – C2 [2, 14]: 78.0 ± 6.4%
- R2 ([2]; Spy molecule 19 at 50 µM, VBC 0.000 μM): 1.475 ± 0.059 s⁻¹
- R2 [2, 15]: 1.969 ± 0.071 s⁻¹
- R2 contrast – C2 [2, 15]: 22.5 ± 4.2%
- R2 [2, 16]: 2.316 ± 0.168 s⁻¹
- R2 contrast – C2 [2, 16]: 34.1 ± 7.9%
- R2 [2, 17]: 3.857 ± 0.121 s⁻¹
- R2 contrast – C2 [2, 17]: 60.4 ± 3.8%
- R2 [2, 18]: 6.424 ± 0.262 s⁻¹
- R2 contrast – C2 [2, 18]: 76.2 ± 5.2%
- R2 ([2]; spy concentration not given, VBC 0.000 μM): 1.392 ± 0.101 s⁻¹
- R2 [2, 19]: 2.337 ± 0.335 s⁻¹
- R2 contrast – C2 [2, 19]: 34.7 ± 15.3%
- R2 [2, 20]: 3.678 ± 0.489 s⁻¹
- R2 contrast – C2 [2, 20]: 58.5 ± 15.5%
- R2 [2, 21]: 4.255 ± 0.566 s⁻¹
- R2 contrast – C2 [2, 21]: 64.1 ± 15.8%
- R2 [2, 22]: 7.063 ± 1.128 s⁻¹
- R2 contrast – C2 [2, 22]: 78.4 ± 20.3%
